# Data from ChEMBL document CHEMBL5500356, “Design, synthesis, and biological evaluation of novel benzimidazole derivatives as anti-cervical cancer agents through PI3K/Akt/mTOR pathway and tubulin inhibition” (Eur J Med Chem, 2024).
# Legend:
# SiHa = experiment: Antiproliferative activity against human SiHa cells assessed as cell viability incubated for 48 hrs by MTT assay; assay type: functional, cell-based
# [1] = Cytotoxicity against human L02 cells assessed as cell viability incubated for 48 hrs by MTT assay; assay type: toxicity, cell-based
# HeLa = experiment: Antiproliferative activity against human HeLa cells assessed as cell viability incubated for 48 hrs by MTT assay; assay type: functional, cell-based
# Ca-Ski = experiment: Antiproliferative activity against human Ca-Ski cells assessed as cell viability incubated for 48 hrs by MTT assay; assay type: functional, cell-based
# [2] = Cytotoxicity against human HEK293T cells assessed as cell viability incubated for 48 hrs by MTT assay; assay type: toxicity, cell-based, HEK-293T
Structure (SMILES),IC50 (SiHa),IC50 at 48 h [1],IC50 (HeLa),IC50 (Ca-Ski),IC50 at 48 h [2]
COc1cc(OC)c(-c2nc3cc(N4CCOCC4)c(C#Cc4ccccc4F)cc3[nH]2)cc1OC,27.2 µM,9.1 µM,20.1 µM,11.5 µM,4.83 µM
COc1cc(OC)c(-c2nc3cc(N4CCN(C)CC4)c(C#Cc4ccccc4Cl)cc3[nH]2)cc1OC,6.07 µM,2.04 µM,2.96 µM,5.34 µM,4.55 µM
COc1cc(OC)c(-c2nc3cc(N4CCOCC4)c(C#Cc4ccc(Cl)cc4)cc3[nH]2)cc1OC,> 100 µM,> 100 µM,16.7 µM,> 100 µM,36.1 µM
COc1cc(OC)c(-c2nc3cc(N4CCOCC4)c(C#Cc4ccc(C(F)(F)F)cc4)cc3[nH]2)cc1OC,> 100 µM,> 100 µM,29.3 µM,> 100 µM,> 100 µM
COc1ccc(C#Cc2cc3[nH]c(-c4cc(OC)c(OC)c(OC)c4)nc3cc2N2CCN(C)CC2)cc1,3.13 µM,2.29 µM,2.07 µM,1.39 µM,0.41 µM
COc1cc(OC)c(-c2nc3cc(N4CCOCC4)c(C#Cc4ccccc4)cc3[nH]2)cc1OC,25.1 µM,34.1 µM,19.3 µM,19.5 µM,13.2 µM
COc1cc(OC)c(-c2nc3cc(N4CCN(C)CC4)c(C#Cc4ccc(Cl)cc4)cc3[nH]2)cc1OC,3.03 µM,1.38 µM,1.61 µM,> 100 µM,1.64 µM
COc1cc(-c2nc3cc(N4CCOCC4)c(C#Cc4ccc(Cl)cc4)cc3[nH]2)cc(OC)c1OC,20.9 µM,12.8 µM,3.23 µM,14.4 µM,15.9 µM
COc1cc(-c2nc3cc(N4CCN(C)CC4)c(C#Cc4ccc(C(F)(F)F)cc4)cc3[nH]2)cc(OC)c1OC,6.54 µM,2.3 µM,3.13 µM,1.38 µM,1.41 µM
COc1cc(OC)c(-c2nc3cc(N4CCOCC4)c(C#Cc4ccccc4Cl)cc3[nH]2)cc1OC,24.4 µM,18.9 µM,16.9 µM,22.5 µM,0.68 µM
COc1cc(-c2nc3cc(N4CCN(C)CC4)c(C#Cc4ccc(Cl)cc4)cc3[nH]2)cc(OC)c1OC,5.49 µM,2.07 µM,3.45 µM,3.97 µM,4.12 µM
